Data from article PMC10557616 (bioRxiv, 2023).

What was measured:
Format in all cases: biochemical
Details in all cases: phosphocreatine as phosphate donor
[1] = target: T1, CKM (Homo sapiens, UniProt P06732); assay: uHPLC-MS detection of TFV-DP
[2] = target: T2, creatine kinase U-type (CKMT1) (Homo sapiens, UniProt P12532); assay: uHPLC-MS detection of TFV-DP
[3] = target: T1, CKM; assay: uHPLC-MS detection of ATP
[4] = target: T2, creatine kinase U-type (CKMT1); assay: uHPLC-MS detection of ATP

T1 sequence (P06732 whole entry): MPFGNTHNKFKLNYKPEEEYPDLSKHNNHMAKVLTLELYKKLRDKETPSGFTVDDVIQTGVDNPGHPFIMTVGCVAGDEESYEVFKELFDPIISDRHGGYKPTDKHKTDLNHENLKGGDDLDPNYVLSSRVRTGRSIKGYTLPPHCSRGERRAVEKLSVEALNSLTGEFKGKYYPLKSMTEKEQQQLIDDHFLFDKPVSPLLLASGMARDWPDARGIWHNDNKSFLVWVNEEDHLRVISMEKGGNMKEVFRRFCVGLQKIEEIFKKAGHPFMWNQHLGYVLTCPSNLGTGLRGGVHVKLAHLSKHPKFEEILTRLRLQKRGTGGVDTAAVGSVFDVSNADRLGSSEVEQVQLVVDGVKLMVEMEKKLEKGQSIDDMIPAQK

SMILES | uHPLC-MS detection of TFV-DP [1] | uHPLC-MS detection of TFV-DP [2] | uHPLC-MS detection of ATP [3] | uHPLC-MS detection of ATP [4]
C[C@H](Cn1cnc2c(N)ncnc21)OCP(=O)(O)OP(=O)(O)O [TFV-MP] | no significant differences in TFV-DP levels between the CKM, CKB, or CKMT1 catalyzed reactions | no significant differences in TFV-DP levels between the CKM, CKB, or CKMT1 catalyzed reactions | – | –
Nc1ncnc2c1ncn2[C@@H]1O[C@H](COP(=O)(O)OP(=O)(O)O)[C@@H](O)[C@H]1O [ADP] | – | – | the proteins were incubated with phosphocreatine and ADP and ATP was detected by uHPLC-MS | the proteins were incubated with phosphocreatine and ADP and ATP was detected by uHPLC-MS
